Test results from patent US4596799A, “9H-pyrrolo[2,1-c]-1,2,4-triazolo[4,3-a][1,4]benzodiazepines” (Ciba-Geigy Corporation, priority 1985, dated 1986).

Columns and labels:
[1] = target: benzodiazepine receptor; experiment: in vitro benzodiazepine receptor binding assay, tritiated flunitrazepam as radioactive ligand; conditions: 0.5 nM tritiated flunitrazepam; read-out: IC50, concentration required to inhibit the specific binding of tritiated flunitrazepam by 50%
Experimental: The benzodiazepine receptor binding properties indicative of the nervous system regulatory activity of said new compounds are determined in the receptor binding assay in vitro, e.g. similarly to that in Nature 266, 732 (1977) or Proc. Nat. Acad. Sci. USA 74, 3805 (1977), using tritiated flunitrazepam as the radioactive ligand. The concentration of the compounds of this invention, required to inhibit the specific binding of 0.5 nM of tritiated flunitrazepam by 50%, i.e. the IC50, is determined graphically.

[2] = tested on: benzodiazepine receptor; experiment: in vivo benzodiazepine receptor binding (3H-flunitrazepam binding in brain); conditions: mouse
Experimental: In vivo benzodiazepine receptor binding is determined essentially as described in Eur. J. Pharmacol. 48, 213 (1978) and Nature 275, 551 (1978). Test compounds in a corn starch vehicle are administered orally or intraperitoneally to mice or rats. A decrease in the binding of ^3 H-flunitrazepam in the brain of drug-treated animals (as compared with the binding observed in animals treated with vehicle alone) is indicative of benzodiazepine receptor binding by the test compound.

[3] = tested on: rat; experiment: Metrazole (pentylenetetrazole) test for anticonvulsant activity; format: in vivo; conditions: po
Description: Anticonvulsant effects are observed, for example in the standard Metrazole (pentylenetetrazole) test for assessing anticonvulsant activity, e.g. orally in the rat as described in U.S. Pat. No. 4,479,955.

Structure (SMILES)	IC50 [1]	inhibition of flunitrazepam binding in vivo ([2]; 30 mg/kg p.o.)	ED50 [3]	inhibition of flunitrazepam binding in vivo ([2]; 5.3 mg/kg p.o.)	inhibition of flunitrazepam binding in vivo ([2]; 0.6 mg/kg p.o.)
Cl.c1ccc(-c2nnc3n2-c2ccccc2Cn2cccc2-3)nc1 [Example 1, 3-(2-Pyridinyl)-9H-pyrrolo[2,1-c]-1,2,4-triazolo[4,3-a][1,4]benzodiazepine Hydrochloride]	~4 nM	about 67%	~3 mg/kg	–	–
Cl.Clc1ccc2c(c1)-n1c(-c3ccccn3)nnc1-c1cccn1C2 [Example 3, 6-Chloro-3-(2-pyridinyl)-9H-pyrrolo[2,1-c]-1,2,4-triazolo[4,3-a][1,4]benzodiazepine Hydrochloride]	~0.7 nM	–	–	~50%	–
Cl.FC(F)(F)c1ccc2c(c1)-n1c(-c3ccccn3)nnc1-c1cccn1C2 [Example 4, 6-Trifluoromethyl-3-(2-pyridinyl)-9H-pyrrolo[2,1-c]-1,2,4-triazolo[4,3-a][1,4]benzodiazepine Hydrochloride]	~0.4 nM	–	–	–	~50%
COc1cc2c(cc1OC)-n1c(-c3ccccn3)nnc1-c1cccn1C2.Cl [Example 7f, 6,7-dimethoxy-3-(2-pyridinyl)-9H-pyrrolo[2,1-c]-1,2,4-triazolo[4,3-a][1,4]benzodiazepine hydrochloride]	~1 nM	~75%	–	–	–
